The results in this text go back to US20200181104A1, “SSAO INHIBITORS AND USES THEREOF” (METACRINE, INC., priority 2018, published 2020).

Counter-ions that a name gives are not always drawn.

This assay concerns the target T1, Recombinant Human SSAO/VAP-1/AOC3 (Homo sapiens, UniProt Q16853).
T1 construct: purchased R&D systems 3957-AO
T1 sequence (Q16853 1-763): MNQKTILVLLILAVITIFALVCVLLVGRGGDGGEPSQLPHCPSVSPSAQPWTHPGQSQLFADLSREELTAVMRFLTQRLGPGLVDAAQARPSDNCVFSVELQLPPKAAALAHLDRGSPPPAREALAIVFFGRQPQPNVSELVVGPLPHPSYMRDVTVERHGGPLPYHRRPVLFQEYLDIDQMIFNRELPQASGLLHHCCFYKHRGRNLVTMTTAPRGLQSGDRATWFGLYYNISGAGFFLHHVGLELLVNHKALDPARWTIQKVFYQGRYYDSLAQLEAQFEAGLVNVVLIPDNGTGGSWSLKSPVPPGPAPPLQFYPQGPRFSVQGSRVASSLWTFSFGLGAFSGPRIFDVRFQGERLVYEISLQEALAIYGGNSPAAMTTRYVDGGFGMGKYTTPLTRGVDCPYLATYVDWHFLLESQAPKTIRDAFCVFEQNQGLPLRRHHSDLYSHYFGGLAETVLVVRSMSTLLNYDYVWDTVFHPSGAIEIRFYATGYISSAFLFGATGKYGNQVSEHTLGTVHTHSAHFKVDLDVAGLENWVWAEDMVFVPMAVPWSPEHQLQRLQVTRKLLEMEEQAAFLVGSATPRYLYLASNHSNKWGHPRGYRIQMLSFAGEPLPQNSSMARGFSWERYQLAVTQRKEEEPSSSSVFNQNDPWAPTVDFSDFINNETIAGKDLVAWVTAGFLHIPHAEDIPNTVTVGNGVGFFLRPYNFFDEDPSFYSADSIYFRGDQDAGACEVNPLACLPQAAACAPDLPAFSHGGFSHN
The assay can be described thus: Human Semicarbazide-Sensitive Amine Oxidase (SSAO) Assay. The assay is classed as biochemical. Particulars: recombinant enzyme, 30 minutes preincubation at 37° C., benzylamine substrate, Amplex Ultra Red/HRP fluorescence. The procedure, abridged: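 IC50 from kinetic Amplex Ultra Red/HRP fluorescence (ex 544, em 590 nm, 30-120 min) after benzylamine addition. Beforehand, 6-10 compound dilutions were preincubated 30 min at 37 °C with recombinant human SSAO in 50 mM HEPES (enzyme working concentration 2.5 μg/ml).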
`NC/C(=C\F)COc1ccc(C23CCC(OCC(=O)N4CCOCC4)(CC2)CC3)cc1` [Compound 8.02, (E)-2-((4-(4-((2-(aminomethyl)-3-fluoroallyl)oxy)phenyl)bicyclo [2.2.2]octan-1-yl)oxy)-1-morpholinoethanone]: the IC50 was at most 0.01 µM. The value for `NC/C(=C\F)COc1ccc(C23CCCC(C(=O)NC4CCOCC4)(CC2)C3)cc1` (centres unmarked) [Compound 5.01, 5-(4-(((E)-2-(Aminomethyl)-3-fluoroallyl)oxy)phenyl)-N-(tetrahydro-2H-pyran-4-yl)bicyclo[3.2.1]octane-1-carboxamide Hydrochloride] was at most 0.01 µM; that for `COCCNC(=O)C12CCC(c3ccc(OC/C(=C/F)CN)cc3)(CC1)CC2` [Compound 2.15, (E)-4-(4-((2-(aminomethyl)-3-fluoroallyl)oxy)phenyl)-N-(2-methoxyethyl) bicyclo[2.2.2] octane-1-carboxamide] was at most 0.01 µM; that for `NC/C(=C/F)COc1ccc(C23CCC(C(=O)NC4CCOCC4)(CC2)CC3)cc1` [Compound 2.06b, (Z)-4-(4-((2-(amino-methyl)-3-fluoroally)oxy)phenyl)-N-(tetrahydro-2H-pyran-4-yl)bicyclo[2.2.2]octane-1-carboxamide] was at most 0.01 µM.

Consider `C[C@H]1COCCN1C(=O)C12CCC(c3ccc(OC/C(=C/F)CN)cc3)(CC1)CC2` [Compound 2.22, (S,E)-(4-(4-((2-(aminomethyl)-3-fluoroallyl)oxy)phenyl)bicyclo[2.2.2]octan-1-yl)(3-methylmorpholino) methanone], for which the IC50 is at most 0.01 µM. The value for `NC/C(=C\F)COc1ccc(C23CCC(C(=O)NC4(C5CCOCC5)CC4)(CC2)CC3)cc1` [Compound 2.41, (E)-4-(4-((2-(aminomethyl)-3-fluoroallyl)oxy)phenyl)-N-(1-(tetrahydro-2H-pyran-4-yl)cyclopropyl)bicyclo[2.2.2] octane-1-carboxamide] was at most 0.01 µM. Then `NC/C(=C\F)COc1ccc(C23CCC(C(=O)N4CC(CO)C4)(CC2)CC3)cc1` [Compound 2.43, (E)-(4-(4-((2-(aminomethyl)-3-fluoroallyl)oxy)phenyl)bicyclo [2.2.2]octan-1-yl)(3-(hydroxymethyl)azetidin-1-yl)methanone], with at most 0.01 µM; and `NC/C(=C\F)COc1ccc(C23CCC(C(=O)NC4[C@H]5COC[C@H]45)(CC2)CC3)cc1` (stereo in doubt) [Compound 2.70, 4-(4-(((E)-2-(aminomethyl)-3-fluoroallyl)oxy)phenyl)-N-((1R,5S,6r)-3-oxabicyclo[3.1.0]hexan-6-yl)bicyclo[2.2.2]octane-1-carboxamide], with at most 0.01 µM; and `CNC(=O)C12CCC(c3ccc(OC/C(=C/F)CN)cc3)(CC1)CC2` [Compound 2.03, (E)-4-(4-((2-(aminomethyl)-3-fluoroallyl)oxy)phenyl)-N-methylbicyclo[2.2.2]octane-1-carboxamide Hydrochloride], with at most 0.01 µM. Then `NC/C(=C\F)COc1ccc(C23CCC(C(=O)NCCOC4CCC4)(CC2)CC3)cc1` [Compound 2.120, (E)-4-(4-((2-(aminomethyl)-3-fluoroallyl)oxy)phenyl)-N-(2-cyclobutoxyethyl)bicyclo [2.2.2]octane-1-carboxamide], with at most 0.01 µM; and `COCCNC(=O)C12CC(c3ccc(OC/C(=C/F)CN)cc3)(C1)C2` [Compound 3.03, (E)-3-(4-((2-(aminomethyl)-3-fluoroallyl)oxy)phenyl)-N-(2-methoxyethyl)bicyclo[1.1.1] pentane-1-carboxamide], with at most 0.01 µM.

Regarding `NC/C(=C\F)COc1ccc(C23CCC(C(=O)Nc4ccncn4)(CC2)CC3)cc1` [Compound 2.122, (E)-4-(4-((2-(aminomethyl)-3-fluoroallyl)oxy)phenyl)-N-(pyrimidin-4-yl)bicyclo[2.2.2]octane-1-carboxamide], the IC50 was at most 0.01 µM. The value for `CO[C@@H]1CCCC(NC(=O)C23CCC(c4ccc(OC/C(=C/F)CN)cc4)(CC2)CC3)C1` (stereo in doubt) [Compound 2.115, 4-(4-(((E)-2-(aminomethyl)-3-fluoroallyl)oxy)phenyl)-N-((1S,3R)-3-methoxycyclohexyl)bicyclo [2.2.2]octane-1-carboxamide] was at most 0.01 µM; that for `COC[C@H]1C[C@@H](NC(=O)C23CCC(c4ccc(OC/C(=C/F)CN)cc4)(CC2)CC3)C1` [Compound 2.124, 4-(4-(((E)-2-(aminomethyl)-3-fluoroallyl)oxy)phenyl)-N-((1s,3s)-3-(methoxymethyl)cyclobutyl) bicyclo[2.2.2]octane-1-carboxamide] was at most 0.01 µM; that for `CC1(NC(=O)C23CCC(c4ccc(OC/C(=C/F)CN)cc4)(CC2)CC3)CCOC1` (centres unmarked) [Compound 2.87, (E)-4-(4-((2-(aminomethyl)-3-fluoroallyl)oxy)phenyl)-N-(3-methyltetrahydrofuran-3-yl)bicyclo[2.2.2]octane-1-carboxamide] was at most 0.01 µM. The value for `C[C@@H](NC(=O)C12CCC(c3ccc(OC/C(=C/F)CN)cc3)(CC1)CC2)C1CCOCC1` [Compound 2.28, (R,E)-4-(4-((2-(aminomethyl)-3-fluoroallyl)oxy)phenyl)-N-(1-(tetrahydro-2H-pyran-4-yl)ethyl)bicyclo[2.2.2]octane-1-carboxamide] was at most 0.01 µM; that for `COC[C@H]1C[C@H](NC(=O)C23CCC(c4ccc(OC/C(=C/F)CN)cc4)(CC2)CC3)C1` [Compound 2.126, 4-(4-(((E)-2-(aminomethyl)-3-fluoroallyl)oxy)phenyl)-N-((1r,3r)-3-(methoxymethyl)cyclobutyl) bicyclo[2.2.2]octane-1-carboxamide] was at most 0.01 µM; that for `NC/C(=C\F)COc1ccc(C23CCC(C(=O)N4CC(OC(F)(F)F)C4)(CC2)CC3)cc1` [Compound 2.94, (E)-(4-(4-((2-(aminomethyl)-3-fluoroallyl)oxy)phenyl)bicyclo [2.2.2]octan-1-yl)(3-(trifluoromethoxy)azetidin-1-yl)methanone] was at most 0.01 µM.

As to `CO[C@H]1C[C@H](CNC(=O)C23CCC(c4ccc(OC/C(=C/F)CN)cc4)(CC2)CC3)C1` [Compound 2.148, 4-(4-(((E)-2-(aminomethyl)-3-fluoroallyl)oxy)phenyl)-N-(((1s,3s)-3-methoxycyclobutyl)methyl) bicyclo[2.2.2]octane-1-carboxamide], the IC50 is at most 0.01 µM. For `COC1CC(NC(=O)C23CCC(c4ccc(OC/C(=C/F)CN)cc4)(CC2)CC3)C1` (centres unmarked) [Compound 2.91, 4-(4-(((E)-2-(aminomethyl)-3-fluoroallyl)oxy)phenyl)-N-((1r,3r)-3-methoxycyclobutyl)bicyclo [2.2.2]octane-1-carboxamide], the IC50 is at most 0.01 µM. Then `CC1(C)CC(NC(=O)C23CC(c4ccc(OC/C(=C/F)CN)cc4)(C2)C3)CCO1` (centres unmarked) [Compound 3.01, (E)-3-(4-((2-(aminomethyl)-3-fluoroallyl)oxy)phenyl)-N-(2,2-dimethyltetrahydro-2H-pyran-4-yl)bicyclo[1.1.1]pentane-1-carboxamide], with at most 0.01 µM; and `NC/C(=C\F)COc1ccc(C23CCC(NC(=O)CCO)(CC2)CC3)cc1` [Compound 7.01, (E)-N-(4-(4-((2-(aminomethyl)-3-fluoroallyl)oxy)phenyl)bicyclo [2.2.2]octan-1-yl)-3-hydroxypropanamide], with at most 0.01 µM; and `C[C@H](NC(=O)C12CCC(c3ccc(OC/C(=C/F)CN)cc3)(CC1)CC2)C1CCOCC1` [Compound 2.27, (S,E)-4-(4-((2-(aminomethyl)-3-fluoroallyl)oxy)phenyl)-N-(1-(tetrahydro-2H-pyran-4-yl)ethyl)bicyclo[2.2.2]octane-1-carboxamide], with at most 0.01 µM. On to `N#CC1CN(C(=O)C23CCC(c4ccc(OC/C(=C/F)CN)cc4)(CC2)CC3)C1` [Compound 2.57, (E)-1-(4-(4-((2-(aminomethyl)-3-fluoroallyl)oxy)phenyl)bicyclo[2.2.2]octane-1-carbonyl)azetidine-3-carbonitrile], for which the IC50 is at most 0.01 µM. In the case of `NC/C(=C\F)COc1ccc(C23CCC(C(=O)N(CCO)C4CC4)(CC2)CC3)cc1` [Compound 2.59, (E)-4-(4-((2-(aminomethyl)-3-fluoroallyl)oxy)phenyl)-N-cyclopropyl-N-(2-hydroxyethyl)bicyclo[2.2.2] octane-1-carboxamide], the IC50 is at most 0.01 µM. The value for `NC/C(=C\F)COc1ccc(C23CCC(C(=O)NC4CC(F)(F)C4)(CC2)CC3)cc1` [Compound 2.135, (E)-4-(4-((2-(aminomethyl)-3-fluoroallyl)oxy)phenyl)-N-(3,3-difluorocyclobutyl)bicyclo[2.2.2] octane-1-carboxamide] was at most 0.01 µM.
